Consider two molecules from paper PMC12472947 (Pharmaceuticals, 2025).

Broadly, the inhibition is the percentage by which the read-out fell short of the control. What is called IC50 is the point on the concentration scale where inhibition reaches its midpoint. The term viability denotes a per cent measure of how many cells are alive, often set against a control. The Ki is the dissociation constant of the complex between target and ligand, obtained from inhibition or displacement.

Test [1] deals with T1, hMAO-B (Homo sapiens, UniProt P27338).
T1 construct: purchased Sigma-Aldrich, Gillingham, UK
T1 sequence (P27338 1-520): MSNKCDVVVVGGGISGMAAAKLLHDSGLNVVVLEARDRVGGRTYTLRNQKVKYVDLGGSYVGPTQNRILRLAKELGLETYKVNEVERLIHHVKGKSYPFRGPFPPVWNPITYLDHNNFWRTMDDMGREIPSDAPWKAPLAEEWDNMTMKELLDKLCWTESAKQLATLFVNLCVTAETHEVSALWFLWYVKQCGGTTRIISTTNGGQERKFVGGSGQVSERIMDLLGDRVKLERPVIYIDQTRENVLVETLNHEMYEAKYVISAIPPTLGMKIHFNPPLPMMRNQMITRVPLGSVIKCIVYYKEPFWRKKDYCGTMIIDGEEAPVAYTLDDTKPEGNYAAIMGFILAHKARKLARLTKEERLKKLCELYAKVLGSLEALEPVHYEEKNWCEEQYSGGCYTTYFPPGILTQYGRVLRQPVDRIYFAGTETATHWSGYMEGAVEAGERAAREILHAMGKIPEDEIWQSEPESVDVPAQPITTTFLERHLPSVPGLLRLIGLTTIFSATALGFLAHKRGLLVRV
As to the kind of experiment: biochemical. The format is biochemical. The protocol: The activity of human recombinant membrane-bound monoamine oxidase isoforms A and B (MAO-A/B) (Sigma-Aldrich, Gillingham, UK) in 50 mM potassium phosphate buffer (pH 7.5) was determined by measuring hydrogen peroxide production coupled to the fluorescent dye Amplex Red (Sigma-Aldrich, UK) at a final concentration of 50 μM, in the presence of horseradish peroxidase (HRP, 2.5 U/mL). This coupling reaction generates the fluorescent product resorufin, which was quantified at 30 °C using a fluorescence plate reader.
(§1) Reactions were initiated by adding the substrate and dye after a 30 min preincubation of the inhibitor with the enzyme. Data were analyzed using a three-parameter equation in GraphPad Prism 7.0 (San Diego, USA). Each reported value represents the mean of at least two independent determinations.

The target of test [2] is T2, hMAO-A (Homo sapiens, UniProt P21397).
T2 construct: purchased Sigma-Aldrich, Gillingham, UK
T2 sequence (P21397 1-527): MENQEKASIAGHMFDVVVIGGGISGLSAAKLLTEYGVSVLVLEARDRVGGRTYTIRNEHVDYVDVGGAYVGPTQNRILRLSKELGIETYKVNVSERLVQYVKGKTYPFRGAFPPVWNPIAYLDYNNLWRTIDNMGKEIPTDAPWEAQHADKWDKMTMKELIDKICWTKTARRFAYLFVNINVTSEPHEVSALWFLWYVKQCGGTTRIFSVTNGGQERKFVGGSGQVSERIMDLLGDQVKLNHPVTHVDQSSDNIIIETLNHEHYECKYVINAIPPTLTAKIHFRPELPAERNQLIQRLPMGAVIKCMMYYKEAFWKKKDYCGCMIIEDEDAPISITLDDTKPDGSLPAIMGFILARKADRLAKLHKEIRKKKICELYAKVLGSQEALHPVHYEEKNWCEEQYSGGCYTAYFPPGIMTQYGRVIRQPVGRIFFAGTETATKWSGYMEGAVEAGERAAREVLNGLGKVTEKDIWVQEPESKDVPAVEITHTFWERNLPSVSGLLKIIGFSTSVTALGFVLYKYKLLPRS
The experiment in a line: MAO-A inhibition, fluorometric Amplex Red assay. The class given is biochemical. As for the experimental part: The activity of human recombinant membrane-bound monoamine oxidase isoforms A and B (MAO-A/B) (Sigma-Aldrich, Gillingham, UK) in 50 mM potassium phosphate buffer (pH 7.5) was determined by measuring hydrogen peroxide production coupled to the fluorescent dye Amplex Red (Sigma-Aldrich, UK) at a final concentration of 50 μM, in the presence of horseradish peroxidase (HRP, 2.5 U/mL). This coupling reaction generates the fluorescent product resorufin, which was quantified at 30 °C using a fluorescence plate reader. […].
as §1

The target in test [3] is T3, equine serum BChE [EqBChE] (Equus caballus, UniProt P81908).
T3 construct: equine serum BChE [EqBChE]; from tissue; host or cells: equine serum
The experiment in a line: biochemical. The settings on record: Ellman method, read-out: IC50(nM) ± SD BChE (EqBChE). As for the experimental part: (§2) The anticholinesterase activity was determined using Ellman’s method, adapted as follows. […] Subsequently, 60 μL of 5,5′-dithiobis(2-nitrobenzoic acid) (DTNB, 1.1 mM) and 30 μL of enzyme solution (electric eel AChE [EeAChE], human AChE [hAChE], or equine serum BChE [EqBChE], 0.20 U/mL) containing 1 mg/mL bovine serum albumin (BSA) were added. […] Enzyme activity was calculated as the percentage relative to untreated controls, subtracting the blank reference. IC50 values were derived via non-linear regression analysis of dose–response curves (Figure S4) using GraphPad Prism v7.0.

Test [4] has as its target human AChE [hAChE] (Homo sapiens, UniProt P22303). As to the kind of experiment: biochemical. The settings on record: for IC50: Human AChE, Ellman method, read-out: IC50(nM) ± SD AChE (hAChE) (converted); for SI: SI = EqBChE IC50/hAChE. The protocol: as §2
The test system of test [5] is H2O2-damaged SH-SY5Y cells. As to the kind of experiment: In vitro neuroprotection against H2O2 in SH-SY5Y (MTT). The following applies: for viability at 12.5 µM: Homo sapiens, SH-SY5Y, read-out: Cell viability (% of control). As for the experimental part:
For the neuroprotection assay, the cells previously cultured (Section 3.4.1) were seeded in 96-well plates at a density of 5 × 10^4 cells/well in a volume of 200 µL. The plates were incubated at 37 °C containing 5% CO2 for 24 h. After 24 h, the medium was replaced with the test solutions. […] Finally, the test solutions were removed, the cells were washed with PBS pH 7.4, and the H2O2 solution was added and maintained in contact with the cells for 24 h. After 24 h exposure, the neuroprotective capacity was assessed through cell viability using the MTT assay protocol previously described in Section 3.4.3 [52, 53].

Test [6] deals with T4, hH3R (Homo sapiens, UniProt Q9Y5N1).
T4 construct: expressed in transfected cells; host or cells: HEK-293
As to the kind of experiment: H3R radioligand displacement assay ([3H]-N-α-methylhistamine). The class given is binding. The settings on record: 95% confidence interval in brackets; HEK-293 membranes. The protocol: HEK-293 cells (human embryonic kidney cells) stably expressing hH3R were washed and harvested in PBS buffer (phosphate-buffered saline). […] The cell membrane homogenate was centrifuged (20,000× g, 20 min, 4 °C), and the resulting pellet was resuspended in binding buffer and stored at −80 °C until use.
Prior to experiments, the cell membranes were thawed, homogenized by sonication at 4 °C, and kept in ice-cold binding buffer. Crude membrane extracts (20 μg/well in a final volume of 0.2 mL binding buffer) were incubated with [^3H]-N-α-methylhistamine (2 nM; 78.3 Ci/mmol) and varying concentrations of test compounds. Assays were performed in duplicate, with compound concentrations ranging from 0.01 nM to 100 μM. Incubations proceeded for 90 min at room temperature under continuous agitation.
Bound radioligand was separated from free radioligand by filtration through GF/B filters pretreated with 0.3% (w/v) polyethyleneimine, using a cell harvester. Radioactivity was quantified by liquid scintillation counting. Data were analyzed using GraphPad Prism v8 (San Diego, CA, USA) software, employing non-linear regression analysis.
(In general: Displacement assays read how much labelled ligand stays bound in the presence of the test substance.)

Marks after values point to notes of the source that are not given here.

Sequence of human AChE [hAChE] (P22303 32-614): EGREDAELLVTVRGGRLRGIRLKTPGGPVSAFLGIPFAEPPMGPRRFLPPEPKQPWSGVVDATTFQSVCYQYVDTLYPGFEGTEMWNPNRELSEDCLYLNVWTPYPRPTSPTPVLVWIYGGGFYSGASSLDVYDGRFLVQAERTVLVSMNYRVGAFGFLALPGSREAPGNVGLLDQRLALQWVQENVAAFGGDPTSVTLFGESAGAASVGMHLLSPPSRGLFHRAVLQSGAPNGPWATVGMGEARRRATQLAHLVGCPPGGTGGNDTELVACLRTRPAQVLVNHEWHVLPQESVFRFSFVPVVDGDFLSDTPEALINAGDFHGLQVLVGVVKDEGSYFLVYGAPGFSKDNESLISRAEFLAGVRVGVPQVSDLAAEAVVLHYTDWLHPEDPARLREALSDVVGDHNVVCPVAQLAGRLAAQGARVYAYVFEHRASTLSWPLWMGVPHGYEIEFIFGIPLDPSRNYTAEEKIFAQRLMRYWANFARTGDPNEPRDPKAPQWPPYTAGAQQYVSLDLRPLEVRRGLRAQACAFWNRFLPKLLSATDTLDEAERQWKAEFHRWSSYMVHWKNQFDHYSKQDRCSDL
T3 sequence (P81908 whole entry): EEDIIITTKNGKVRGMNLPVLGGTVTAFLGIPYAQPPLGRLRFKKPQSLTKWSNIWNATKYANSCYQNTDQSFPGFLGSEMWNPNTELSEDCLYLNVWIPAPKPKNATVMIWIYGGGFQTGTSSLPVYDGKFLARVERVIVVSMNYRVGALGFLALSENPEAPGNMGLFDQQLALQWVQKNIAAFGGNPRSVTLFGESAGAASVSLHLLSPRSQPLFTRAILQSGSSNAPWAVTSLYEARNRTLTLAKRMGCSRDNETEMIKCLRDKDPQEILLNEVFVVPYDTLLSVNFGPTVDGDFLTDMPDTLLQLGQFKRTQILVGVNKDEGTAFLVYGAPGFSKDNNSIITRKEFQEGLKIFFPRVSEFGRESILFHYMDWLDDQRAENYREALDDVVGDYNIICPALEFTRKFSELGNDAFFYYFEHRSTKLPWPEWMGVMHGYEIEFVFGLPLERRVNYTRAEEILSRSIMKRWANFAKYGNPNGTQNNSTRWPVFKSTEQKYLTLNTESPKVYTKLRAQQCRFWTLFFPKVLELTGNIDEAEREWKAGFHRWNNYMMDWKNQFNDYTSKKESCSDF
T4 sequence (Q9Y5N1 whole entry): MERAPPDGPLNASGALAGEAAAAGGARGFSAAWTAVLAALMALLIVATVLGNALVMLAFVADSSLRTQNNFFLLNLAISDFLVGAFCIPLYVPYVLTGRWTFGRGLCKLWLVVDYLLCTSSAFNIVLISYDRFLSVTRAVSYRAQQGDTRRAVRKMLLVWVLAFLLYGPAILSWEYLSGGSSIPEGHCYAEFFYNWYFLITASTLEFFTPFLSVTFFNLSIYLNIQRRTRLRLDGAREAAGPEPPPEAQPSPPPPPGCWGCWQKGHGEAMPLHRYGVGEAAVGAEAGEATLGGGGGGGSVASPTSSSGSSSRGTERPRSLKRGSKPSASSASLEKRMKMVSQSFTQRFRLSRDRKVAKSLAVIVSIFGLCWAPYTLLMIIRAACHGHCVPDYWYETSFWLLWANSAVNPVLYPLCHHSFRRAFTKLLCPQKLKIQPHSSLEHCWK

On to `O=c1oc2cc(OCCN3CCCCC3)ccc2cc1-c1cn(Cc2ccccc2)nn1` [Compound 1h, 3-(1-Benzyl-1H-1,2,3-triazol-4-yl)-7-(2-(piperidin-1-yl)ethoxy)-2H-chromen-2-one], for which the inhibition at 1 µM in test [1] (test concentration of 1 µM, read-out: Percentage of MAO-B inhibition ± SEM) came out at 11.3 ± 1.9%; in test [2] (test concentration of 1 µM, read-out: Percentage of MAO-A inhibition ± SEM), 5.2 ± 1.9%. In addition, the figures for the IC50 in test [3] and in test [4] were 3790 ± 400 nM and 115 nM, respectively. In addition, in test [4], the SI turned out to be 33. The “neuroprotection against H2O2-induced oxidative stress” value in test [5] (12.5 µM) was “neuroprotective effects”. The viability at 12.5 µM in test [5] was 88%. The same molecule showed a Ki in test [6] of 558 nM.

Regarding `O=c1oc2cc(OCCCN3CCCCC3)ccc2cc1-c1cn(Cc2ccccc2)nn1` [Compound 1q, 3-(1-Benzyl-1H-1,2,3-triazol-4-yl)-7-(3-(piperidin-1-yl)propoxy)-2H-chromen-2-one], the half-inhibitory concentration (IC50) in test [1] is 1690 nM; in test [2] (95% confidence interval in brackets), 31100 nM; in test [3] it was 3560 ± 190 nM; in test [4] it was 1410 nM. Also, in test [1], the MAO-B/A selectivity ratio entry is reported as “greater than 18 fold”. Further, in test [4], the SI was ~2 ^e,f. Moreover, in test [5], the viability at 12.5 µM stood at 68%. This molecule also displayed a Ki in test [6] of 151 nM.
